In patent US7692030B2, “Conjugates of artemisinin-related endoperoxides and hydrazone derivatives for the treatment of cancer” (University of Washington, priority 2006, dated 2010):

How the values were obtained:
[1] = test system: human leukemia cells; conditions: cited from earlier work
[2] = test system: DAOY medulloblastoma cells; experiment: DAOY medulloblastoma cells, MTT assay and light microscopy; assay type: cell-based; conditions: after 24 h treatment; each treatment had holo-Tf (20 μg/well)
Method: The compound ART-Phe-Sal was tested on DAOY medulloblastoma cells using the MTT assay. DAOY Medulloblastoma cells (5,000 cells/200 μL) was seeded on a 96 well plate and incubated for 24 h at 37° C. Cell culture medium was removed after 24 h and 150 μL of medium with treatment was added. Each experimental treatment had holo-Tf (20 μg/well). Treatment assay was viewed under light microscope after 24 h.
Treatment medium was removed after 48 h, and 100 μL of cell medium was added. MTT Reagent (10 μL, 12 mM) was added to each well. This solution was incubated at 37° C. for 4 h. Isopropanol (100 μL) was added to each well to lyse the cells, which were then incubated at 4° C. for 30 m. After incubation each well was plunged (3×200 μL) to ensure the cells were lysed. The incubated medium with MTT reagent was then centrifuged at 13,000 RPM in an eppendorph centrifuge for 3 minutes at room temperature. 100 μL of supernatant was read in a plate reader at λ=570 nm. FIG. 13 compares the effect of dihydroartemisinin (DHA) and ART-Phe-Sal on DAOY medulloblastoma cell line. The concentration of holo-Tf was 1.7 μM.

Compound | therapeutic index (toxicity towards cancer cells versus normal cells) [1] | cell shrinkage under light microscope [2]
C[C@@H]1CC[C@H]2[C@@H](C)C(=O)O[C@@H]3O[C@@]4(C)CC[C@@H]1[C@]32OO4 [Artemisinin] | approximately 100 | 
holo-Tf: Human holotransferrin (Sigma Chemicals), iron carrying protein added to the cells |  | Moderate cell shrinkage
